From ChEMBL document CHEMBL3352623, “Improved antiproliferative activity of 1,3,4-thiadiazole-containing histone deacetylase (HDAC) inhibitors by introduction of the heteroaromatic surface recognition motif” (Bioorg Med Chem, 2014) come the findings set out here.

A value given as a limit tells only on which side of the number the result lay.

Experiment [1] addresses Histone deacetylase (HDAC1 and HDAC2) (Homo sapiens, UniProt Q13547+Q92769). The experiment in a line: Inhibition of HDAC1/HDAC2 in human HeLa cell extract incubated for 5 mins prior to substrate addition measured after 30 mins by microtitre plate reader analysis. Format: cell-based.
The subject of a further experiment is MDA-MB-231. Kind of experiment: Antiproliferative activity against human MDA-MB-231 cells after 48 hrs by MTT assay. The settings on record: MDA-MB-231, 48 h. Format: functional, cell-based.
The next experiment deals with K562. The experiment in a line: Antiproliferative activity against human K562 cells after 48 hrs by MTT assay. Format: functional, cell-based. The settings on record: K562, 48 h.
Experiment [2] can be described thus: Antiproliferative activity against human PC3 cells after 48 hrs by MTT assay. Format: functional, cell-based. The settings on record: PC-3, 48 h.

`O=C(CCCCCC(=O)Nc1nnc(-c2ccc(Br)cc2)s1)NO` had an IC50 in experiment [1] of 1.285 µM.

The compound `O=C(CCCCCC(=O)Nc1nnc(-c2ccc(N3CCOCC3)cc2)s1)NO` yielded an IC50 in experiment [1] of more than 5 µM. Still for that read-out and setting: as for `CN(C)c1ccc(-c2nnc(NC(=O)CCCCCC(=O)NO)s2)cc1`, the figure is more than 5 µM; as for `COc1ccc(-c2nnc(NC(=O)CCCCCC(=O)NO)s2)cc1`, 0.437 µM; as for `COc1ccc(-c2nnc(NC(=O)CCCCCC(=O)NO)s2)cc1OC`, 0.487 µM. Turning to `Cc1ccc(-c2nnc(NC(=O)CCCCCC(=O)NO)s2)cc1`, the IC50 in experiment [1] came to 0.422 µM. Still for that read-out and setting: as for `O=C(CCCCCC(=O)Nc1nnc(-c2ccc(-c3ccccc3)cc2)s1)NO`, the figure is more than 5 µM; as for `O=C(CCCCCC(=O)Nc1nnc(-c2ccc(F)cc2)s1)NO`, 0.741 µM; as for `O=C(CCCCCC(=O)Nc1nnc(-c2ccc(Cl)cc2)s1)NO`, 0.988 µM. On the same count and under the same terms, the figure for `O=C(CCCCCC(=O)Nc1nnc(-c2cccc(Cl)c2)s1)NO` is 0.847 µM. The compound `O=C(CCCCCC(=O)Nc1nnc(-c2ccccc2Cl)s1)NO` had an IC50 in experiment [1] of 0.507 µM. Still for that read-out and setting: the figure for `O=C(CCCCCC(=O)Nc1nnc(-c2ccc(I)cc2)s1)NO` is 0.875 µM; for `CS(=O)(=O)c1ccc(-c2nnc(NC(=O)CCCCCC(=O)NO)s2)cc1` it is 0.721 µM. The same measure, in the same setting: the figure for `O=C(CCCCCC(=O)Nc1nnc(-c2ccc([N+](=O)[O-])cc2)s1)NO` is 0.709 µM; for `O=C(CCCCCC(=O)Nc1nnc(-c2ccc(C(F)(F)F)cc2)s1)NO` it is 1.154 µM; for `O=C(CCCCCCC(=O)Nc1nnc(-c2ccc(N3CCOCC3)cc2)s1)NO` it is more than 5 µM.

`O=C(CCCCCCC(=O)Nc1nnc(-c2ccc(-c3ccccc3)cc2)s1)NO` registered an IC50 in experiment [1] of more than 5 µM. Still for that read-out and setting: as for `O=C(CCCCCCC(=O)Nc1nnc(-c2cccc(Br)c2)s1)NO`, the figure is 1.215 µM; as for `O=C(CCCCCCC(=O)Nc1nnc(-c2ccccc2Br)s1)NO`, 0.526 µM. `O=C(CCCCCCC(=O)Nc1nnc(-c2ccc(I)cc2)s1)NO` showed an IC50 in experiment [1] of more than 5 µM. Same read-out and setting: the figure for `CS(=O)(=O)c1ccc(-c2nnc(NC(=O)CCCCCCC(=O)NO)s2)cc1` is 0.598 µM; for `O=C(CCCCCCC(=O)Nc1nnc(-c2ccc(C(F)(F)F)cc2)s1)NO` it is more than 5 µM. Still for that read-out and setting: as for `O=C(CCCCCC(=O)Nc1nnc(-c2cccc3ccccc23)s1)NO`, the figure is 3.186 µM.

In experiment [1], `O=C(CCCCCC(=O)Nc1nnc(-c2ccc3ccccc3c2)s1)NO` displayed an IC50 of more than 5 µM. `O=C(CCCCCC(=O)Nc1nnc(-c2cccnc2)s1)NO`: the IC50 was 0.325 µM in experiment [1], 11.7 µM in the experiment on MDA-MB-231, more than 60 µM in the experiment on K562 and 54.4 µM in experiment [2]. In the case of `O=C(CCCCCC(=O)Nc1nnc(-c2ccncc2)s1)NO`, the IC50 in experiment [1] was 0.411 µM; in the experiment on MDA-MB-231, 40.1 µM; with K562, more than 60 µM; in experiment [2], more than 60 µM. In experiment [1], `O=C(CCCCCC(=O)Nc1nnc(-c2ccco2)s1)NO` had an IC50 of 0.434 µM. As for `O=C(CCCCCC(=O)Nc1nnc(-c2cccs2)s1)NO`, the IC50 in experiment [1] is 0.411 µM; in the experiment with MDA-MB-231, 15.2 µM; in the experiment on K562, more than 60 µM; in experiment [2], more than 60 µM. As for `O=C(CCCCCCC(=O)Nc1nnc(-c2cccc3ccccc23)s1)NO`, the IC50 in experiment [1] is more than 5 µM. Same read-out and setting: the figure for `O=C(CCCCCCC(=O)Nc1nnc(-c2ccc3ccccc3c2)s1)NO` is more than 5 µM. For the compound `O=C(CCCCCCC(=O)Nc1nnc(-c2cccnc2)s1)NO`, the IC50 in experiment [1] came to 0.386 µM; with MDA-MB-231, 1.87 µM; in the experiment with K562 it was 4.36 µM; in experiment [2], 7.98 µM. Take `O=C(CCCCCCC(=O)Nc1nnc(-c2ccncc2)s1)NO`: the IC50 in experiment [1] is 0.286 µM; in the experiment on MDA-MB-231, 4.69 µM; in the experiment on K562, 4.15 µM; in experiment [2], 7.75 µM. `O=C(CCCCCCC(=O)Nc1nnc(-c2ccco2)s1)NO` gave an IC50 in experiment [1] of 0.436 µM.

Regarding `O=C(CCCCCCC(=O)Nc1nnc(-c2cccs2)s1)NO`, the IC50 in experiment [1] stood at 0.31 µM; in the experiment with MDA-MB-231, 1.21 µM; with K562, 1.56 µM; in experiment [2] it was 3.6 µM. The compound `O=C(CCCCCCC(=O)Nc1ccccc1)NO` [VORINOSTAT] displayed a half-maximal inhibitory concentration (IC50) in the experiment on MDA-MB-231 of 2.29 µM.
